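Step 1: Grow cells in 96-well plates. Step 2: Expose to compound for 48 hours at 5 concentrations. Step 3: Interpolate endpoints linearly; if unreached, use highest concentration. At the GI50, growth is halved. Definition used: TGI = concentration required for complete inhibition of growth.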
What was measured:
Experiment in all cases: NCI-60 cell line screen, 48 h
IGROV1 ovarian = system: IGROV1 ovarian
SK-MEL-5 melanoma = system: SK-MEL-5 melanoma
HCT-116 colon = system: HCT-116 colon
HL-60(TB) leukemia = system: HL-60(TB) leukemia
CCRF-CEM leukemia = system: CCRF-CEM leukemia
ACHN renal = system: ACHN renal
DU-145 prostate = system: DU-145 prostate
KM12 colon = system: KM12 colon
RPMI-8226 leukemia = system: RPMI-8226 leukemia
CAKI-1 renal = system: CAKI-1 renal

Row | Structure (SMILES) | GI50 (IGROV1 ovarian) [µM] | TGI (IGROV1 ovarian) [µM] | GI50 (SK-MEL-5 melanoma) [µM] | TGI (SK-MEL-5 melanoma) [µM] | GI50 (HCT-116 colon) [µM] | TGI (HCT-116 colon) [µM] | GI50 (HL-60(TB) leukemia) [µM] | TGI (HL-60(TB) leukemia) [µM] | GI50 (CCRF-CEM leukemia) [µM] | TGI (CCRF-CEM leukemia) [µM] | GI50 (ACHN renal) [µM] | TGI (ACHN renal) [µM] | GI50 (DU-145 prostate) [µM] | TGI (DU-145 prostate) [µM] | GI50 (KM12 colon) [µM] | TGI (KM12 colon) [µM] | GI50 (RPMI-8226 leukemia) [µM] | TGI (RPMI-8226 leukemia) [µM] | GI50 (CAKI-1 renal) [µM] | TGI (CAKI-1 renal) [µM]
1 | CCCCCCOc1ccc(/C=N/Nc2cc(C)nc3ccc(Br)cc23)cc1 | 1.75 | 3.45 | 1.67 | 3.04 | 0.85 | 2.11 | 1.29 | 3.26 | 1.71 | 3.97 | 1.74 | 3.11 | 1.92 | 3.7 | 1.8 | 3.5 | 1.86 | 4.06 | 1.66 | 3.04
2 | O=C1/C=C/[C@@H](O)[C@@H]2C[C@@H](O)C[C@H]2/C=C/CCCCO1 | 0.831 | 3.73 | 0.157 | 0.295 | 0.447 | 1.53 | 1.61 | – | 0.595 | – | 0.43 | > 23.6 | 0.857 | > 100 | 0.225 | 0.553 | 0.248 | 0.889 | 0.785 | –
3 | CN(Cc1cccc(Cl)c1)c1ccc(CO)c(Cl)c1 | 0.448 | 4.16 | 7.47 | 20.7 | 0.481 | 11.3 | 13.9 | 45 | 22.7 | > 73.6 | 21.9 | 93.5 | 21 | > 51.1 | 18.7 | 43.3 | 12.2 | 55 | 2.36 | 23.4
4 | COc1ccc(S(=O)(=O)Nc2c(/C=C\c3cc(OC)c(OC)c(OC)c3)ccc(OC)c2O)cc1OC | 0.358 | > 100 | 0.0985 | 0.435 | 0.171 | > 100 | 0.338 | > 100 | 0.125 | > 100 | 0.526 | > 100 | 0.388 | > 100 | 0.091 | > 100 | 0.413 | > 61 | 1.01 | > 100
5 | CC(=O)O[C@H]1CC[C@@]2(C)[C@@H](CC[C@@H]3[C@@H]2CC(=O)[C@@]2(C)[C@H]3C[C@@H]3CC(C)=CC(=O)[C@@H]32)C1 | – | > 100 | – | > 100 | – | > 100 | – | 27.8 | – | > 100 | – | > 100 | – | > 100 | – | > 100 | – | 45.8 | – | > 100
6 | Nc1c(S(=O)(=O)O)cc2c(c1Cl)C(=O)c1ccccc1C2=O | > 100 | > 100 | > 100 | > 100 | > 100 | > 100 | > 100 | > 100 | > 100 | > 100 | > 100 | > 100 | > 100 | > 100 | > 100 | > 100 | > 100 | > 100 | > 100 | > 100
7 | CC(NC(=O)C1(N)CCCC1)C(=O)O (configuration not stated) | – | > 100 | – | > 100 | – | > 100 | – | > 100 | – | > 100 | – | > 100 | – | > 100 | – | > 100 | – | > 100 | – | > 100

Source: PubChem BioAssay (NCI)
